The text below walks through data of ChEMBL document CHEMBL1201862, “PubChem BioAssay data set” (2004).

Structures are written as SMILES.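 Five compound concentrations were applied to cells in 96-well plates for 48 hours; endpoints were derived by simple linear interpolation of the resulting dose-response curve. GI50 marks 50% less growth.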 Calls of active or inactive are those of the source. No stated cut-off is given here; in the data, active = GI50 up to about 1.1 µM and inactive = higher.

Common to all, as to test: inhibition of tumour cell growth, NCI panel, 48 h
The test system of test [1] is UO-31.
In test [2] the test system is SK-MEL-28.
In test [3] the test system is SF-268.
Test [4] deals with XF498.
In test [5] the test system is HCT-15.
In test [6] the test system is HOP-62.
Test [7] relates to MOLT-4.
The test system of test [8] is UACC-62.
Test [9] deals with SK-MEL-5.
Test [10] deals with NCI-H226.
Test [11] concerns K562.
Test [12] concerns HOP-92.
Test [13] has as its system SN12C.
Test [14] relates to EKVX.
For test [15], the system named is A549.
For test [16], the system named is CAKI-1.
Test [17] deals with RXF 393.

For `CN1CCC(c2c(O)cc(O)c3c(=O)cc(-c4ccccc4Cl)oc23)C(O)C1` (configuration not stated), the GI50 in [1] is 0.0303 µM (active); in test [2] it was 0.0735 µM (active); in [3] it was 0.0467 µM (active); in [4], 0.0492 µM (active); in test [5] it was 0.057 µM; in [6], 0.018 µM (active). Moreover, the GI50 was < 0.0108 µM (active) in [7]; 0.0289 µM (active) in test [8]; 0.0344 µM (active) in [9]; 0.0336 µM (active) in test [10]; 0.259 µM (active) in test [11]; 0.0194 µM (active) in test [12]. Besides, the GI50 was 0.143 µM (active) in test [13]; < 0.0395 µM (active) in test [14]; 0.0607 µM (active) in [15]; 0.0628 µM (active) in test [16]; < 0.0149 µM (active) in [17].
Consider `O=C1C2c3[nH]c4ccccc4c3C3CCCCCC3C2C(=O)N1c1ccccc1` (configuration not stated), for which the GI50 in test [1] is 38.2 µM (inactive); in test [2], > 59.8 µM (inactive); in test [3], 39.2 µM (inactive); in [4] it was 22.9 µM (inactive); in [5], greater than 47 µM; in test [6], 16.9 µM (inactive). For the same compound, the GI50 in test [7] is 16 µM (inactive); in test [8] it was > 63.7 µM (inactive); in [9], > 100 µM (inactive); in test [10], 21.3 µM (inactive); in test [11], > 55 µM (inactive); in [12], 30.1 µM (inactive). The GI50 in test [13] is 9.71 µM (inactive); in test [14] it was > 68.1 µM (inactive); in test [15], 34.4 µM (inactive); in [16], 17.4 µM (inactive); in test [17], 12.4 µM (inactive).
`CC(=O)OCc1cc(OC(C)=O)cnc1COC(C)=O`: the GI50 is > 100 µM (inactive) in test [1]; > 100 µM (inactive) in test [2]; > 100 µM (inactive) in [3]; > 100 µM (inactive) in test [4]; greater than 100 µM in [5]; > 100 µM (inactive) in [6]. For the same compound, the GI50 in test [7], in [8], in test [9], in [10], in test [11] and in [12] was > 100 µM (inactive) in each case. The GI50 in [13], in test [14], in test [15], in [16] and in test [17] was > 100 µM (inactive) throughout.
In the case of `Cc1cc(C)nc(NS(=O)(=O)c2ccc(Nc3c4ccc(Cl)cc4nc4c(C(=O)NCCN(C)C)cccc34)cc2)n1`, the GI50 in [1] was > 100 µM (inactive); in test [2], > 100 µM (inactive); in test [3], > 100 µM (inactive); in test [4], > 100 µM (inactive); in test [5], greater than 100 µM; in test [6], > 100 µM (inactive). Also, the GI50 in [7] is > 100 µM (inactive); in [8] it was > 100 µM (inactive); in [9] it was > 100 µM (inactive); in [10], > 100 µM (inactive); in test [11], 59.2 µM (inactive); in test [12], 78 µM (inactive). The GI50 in test [13], in test [14], in test [15], in [16] and in test [17] was > 100 µM (inactive) in each case.
For `C/N=C(\NC(=S)N(C)C)N(C)C`, the GI50 in test [1] was > 100 µM (inactive); in test [2], > 100 µM (inactive); in [3] it was > 100 µM (inactive); in test [4] it was > 100 µM (inactive); in test [5], greater than 100 µM; in [6] it was > 100 µM (inactive). Besides, the GI50 in test [7] was > 100 µM (inactive); in test [8] it was > 100 µM (inactive); in test [9], > 100 µM (inactive); in test [10], 48.5 µM (inactive); in test [11] it was > 100 µM (inactive); in test [12] it was > 100 µM (inactive). Also, the GI50 in test [13], in test [14], in test [15], in test [16] and in test [17] was > 100 µM (inactive) in each case.
`CCOc1ccc(/C=C/c2cc(OC)c(OC)c(OC)c2)cc1`: the GI50 in test [1] was 17.1 µM (inactive); in test [2], 0.83 µM (active); in test [3], 2.18 µM (inactive); in [4] it was 4.4 µM (inactive); in [5] it was 0.869 µM; in test [6], 0.392 µM (active). The GI50 in test [7] was 1.37 µM (inactive); in test [8], 0.385 µM (active); in test [9], 0.556 µM (active); in test [10], 2.45 µM (inactive); in test [11], 0.458 µM (active); in [12], 10.8 µM (inactive). The GI50 in [13] was 4.02 µM (inactive); in test [14] it was > 100 µM (inactive); in test [15] it was 1.08 µM (active); in [16] it was 0.564 µM (active); in [17], 0.347 µM (active).
